Data reported in US20030215462A1, “Use of UGT inhibitors to increase bioavailability” (priority 2001, published 2003).
“And” between values parts separate entries of the source, which are not always exact repeats. Equal values may be shown once.

Assays:
[1] = test system: T1, UGT enzymes of human liver microsomes; experiment: Inhibition of 7-HFC glucuronidation in human liver microsomes; format: biochemical; conditions: for % of control metabolism (SD, n = 3), 7-HFC glucuronidation: 7-HFC 50 μM, human liver microsomes 100 μg/ml, 15 min
T1 construct: percentage of control metabolism, 7-HFC glucuronidation; percentage of control metabolism, 7-HFC glucuronidation

[2] = test system: UGT enzymes of human liver microsomes; experiment: Inhibition of raloxifene glucuronidation (G1, G2) in human liver microsomes; format: biochemical; conditions: for % of control metabolism (SD, n = 3), raloxifene glucuronide G1 / % of control metabolism (SD, n = 3), raloxifene glucuronide G2: human liver microsomes 250 μg/ml, 15 min
Source text: Compounds were eluted using a binary solvent gradient system. […] Solvent B was methanol. […] Detection was at 280 nm.

[3] = test system: UGT enzymes of pooled human jejunum microsomes; experiment: Inhibition of estradiol (E2) glucuronidation in pooled human jejunum microsomes; format: biochemical; conditions: jejunum HJ61; E2 50 μM; inhibitor 50 μM
Source text: (§1) Compounds were eluted using a binary solvent gradient system where solvent A was dilute phosphoric acid (pH 3) and solvent B was 80:20 acetonitrile-methanol. […] Detection was at 280 nm.

[4] = test system: T2, UGT enzymes of human liver microsomes; experiment: Inhibition of 2ME2 glucuronidation (MG1, MG2) in human liver microsomes; format: biochemical; conditions: liver 062101, 2ME2 50 μM
T2 construct: other: liver 062101
Source text: as §1

[5] = molecular target: T3, UGT1A1 (Homo sapiens, UniProt P22309); experiment: Inhibition of raloxifene glucuronidation by recombinant UGT1A1 Supersomes; conditions: UGT1A1
T3 sequence (P22309 26-533): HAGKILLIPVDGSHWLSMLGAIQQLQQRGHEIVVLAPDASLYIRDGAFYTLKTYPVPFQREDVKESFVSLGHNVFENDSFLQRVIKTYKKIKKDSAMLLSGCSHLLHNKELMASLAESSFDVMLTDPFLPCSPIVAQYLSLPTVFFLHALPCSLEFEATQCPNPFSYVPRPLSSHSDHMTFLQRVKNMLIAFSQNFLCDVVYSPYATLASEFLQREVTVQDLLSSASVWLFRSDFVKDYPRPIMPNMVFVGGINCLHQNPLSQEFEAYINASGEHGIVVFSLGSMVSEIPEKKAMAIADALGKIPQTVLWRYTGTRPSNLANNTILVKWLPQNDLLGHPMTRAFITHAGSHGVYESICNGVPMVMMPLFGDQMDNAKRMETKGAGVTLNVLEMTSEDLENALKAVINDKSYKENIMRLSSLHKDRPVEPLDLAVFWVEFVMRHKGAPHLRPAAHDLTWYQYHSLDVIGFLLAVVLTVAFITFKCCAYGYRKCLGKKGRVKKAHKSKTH
Method: (§2) Compounds were eluted using a binary solvent gradient system. Solvent A was water brought to pH 8 with NH4OH. Solvent B was methanol. Solvent flow rate was 1 ml/min and the column temperature was maintained at 50° C. Detection was at 280 nm. […] The system was then returned to the initial conditions and equilibrated for 3 min.

[6] = molecular target: T4, UGT1A3 (Homo sapiens, UniProt P35503); experiment: Inhibition of raloxifene glucuronidation by recombinant UGT1A3 Supersomes; conditions: UGT1A3
T4 sequence (P35503 29-534): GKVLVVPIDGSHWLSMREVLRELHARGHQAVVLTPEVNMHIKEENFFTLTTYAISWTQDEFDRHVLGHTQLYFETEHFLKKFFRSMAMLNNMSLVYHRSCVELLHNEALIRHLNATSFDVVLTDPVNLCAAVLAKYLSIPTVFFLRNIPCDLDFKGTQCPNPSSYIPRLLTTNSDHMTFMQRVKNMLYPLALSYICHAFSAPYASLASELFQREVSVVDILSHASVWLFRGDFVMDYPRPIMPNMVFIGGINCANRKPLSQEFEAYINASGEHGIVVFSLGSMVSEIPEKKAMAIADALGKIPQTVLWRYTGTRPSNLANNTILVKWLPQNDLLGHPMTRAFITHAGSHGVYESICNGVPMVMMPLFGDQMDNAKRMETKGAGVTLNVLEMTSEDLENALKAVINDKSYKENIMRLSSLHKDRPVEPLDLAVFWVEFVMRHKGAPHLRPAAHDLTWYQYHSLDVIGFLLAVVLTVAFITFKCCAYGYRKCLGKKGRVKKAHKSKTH
Method: as §2

[7] = inhibitor 10 μM, raloxifene 50 μM
[8] = inhibitor 25 μM, raloxifene 50 μM
[9] = inhibitor 50 μM, raloxifene 50 μM
[10] = inhibitor 100 μM, raloxifene 50 μM
[11] = inhibitor 500 μM, raloxifene 50 μM
[12] = liver lot 032101, inhibitor 50 μM
[13] = liver lot 062101, inhibitor 50 μM
[14] = liver lot 083000, inhibitor 50 μM
[15] = raloxifene 50 μM, inhibitor 10 μM
[16] = raloxifene 50 μM, inhibitor 25 μM
[17] = raloxifene 50 μM, inhibitor 50 μM
[18] = raloxifene 50 μM, inhibitor 100 μM

Compound: O=C(O[C@@H]1Cc2c(O)cc(O)cc2O[C@@H]1c1ccc(O)c(O)c1)c1cc(O)c(O)c(O)c1 [Epicatechin gallate]
- percentage of control metabolism, 7-HFC glucuronidation ([1]; inhibitor 100 μM): 67 (1) %
- % of control metabolism (SD, n = 3), 7-HFC glucuronidation ([1]; inhibitor 100 μM): 67 (1) %
- percentage of control metabolism, 7-HFC glucuronidation ([1]; inhibitor 200 μM): 55 (3) %
- % of control metabolism (SD, n = 3), 7-HFC glucuronidation ([1]; inhibitor 200 μM): 55 (3) %
- percentage of control metabolism, 7-HFC glucuronidation ([1]; inhibitor 500 μM): 10 (1) %
- % of control metabolism (SD, n = 3), 7-HFC glucuronidation ([1]; inhibitor 500 μM): 10 (1) %
- % of control metabolism (SD, n = 3), raloxifene glucuronide G1 [2, 7]: 77 (4) %
- % of control metabolism (SD, n = 3), raloxifene glucuronide G1 [2, 8]: 48 (4) %
- % of control metabolism (SD, n = 3), raloxifene glucuronide G1 [2, 9]: 37 (3) %
- % of control metabolism (SD, n = 3), raloxifene glucuronide G1 [2, 10]: 20 (0) %
- % of control metabolism (SD, n = 3), raloxifene glucuronide G1 [2, 11]: 0 (0) %
- % of control metabolism (SD, n = 3), raloxifene glucuronide G2 [2, 7]: 73 (4) %
- % of control metabolism (SD, n = 3), raloxifene glucuronide G2 [2, 8]: 55 (5) %
- % of control metabolism (SD, n = 3), raloxifene glucuronide G2 [2, 9]: 43 (4) %
- % of control metabolism (SD, n = 3), raloxifene glucuronide G2 [2, 10]: 24 (2) %
- % of control metabolism (SD, n = 3), raloxifene glucuronide G2 [2, 11]: 0 (0) %
- % of control metabolism, raloxifene G1 [2, 12]: 47 (4) %
- % of control metabolism, raloxifene G2 [2, 12]: 45 (2) %
- % of control metabolism, raloxifene G1 [2, 13]: 63 (4) %
- % of control metabolism, raloxifene G2 [2, 13]: 37 (2) %
- % of control metabolism, raloxifene G1 [2, 14]: 37 (3) %
- % of control metabolism, raloxifene G2 [2, 14]: 43 (4) %
- % of control metabolism, raloxifene G1 [2, 15]: 77 (4) %
- % of control metabolism, raloxifene G2 [2, 15]: 73 (4) %
- % of control metabolism, raloxifene G1 [2, 16]: 48 (4) %
- % of control metabolism, raloxifene G2 [2, 16]: 55 (5) %
- % of control metabolism, raloxifene G1 [2, 17]: 37 (3) %
- % of control metabolism, raloxifene G2 [2, 17]: 43 (4) %
- % of control metabolism, raloxifene G1 [2, 18]: 20 (0) %
- % of control metabolism, raloxifene G2 [2, 18]: 24 (2) %
- residual metabolism (% of control), E2-3-β-D-glucuronide [3]: 26 (1) %
- residual metabolism (% of control), E2-17-β-D-glucuronide [3]: 61 (4) %
- residual metabolism (% of control), 2ME2 MG1 ([4]; inhibitor 25 μM): 47 (1) %
- residual metabolism (% of control), 2ME2 MG2 ([4]; inhibitor 25 μM): 79 (2) %
- residual metabolism (% of control), 2ME2 MG1 ([4]; inhibitor 50 μM): 33 (1) %
- residual metabolism (% of control), 2ME2 MG2 ([4]; inhibitor 50 μM): 69 (2) %
- residual metabolism (% of control), 2ME2 MG1 ([4]; inhibitor 100 μM): 17 (1) %
- residual metabolism (% of control), 2ME2 MG2 ([4]; inhibitor 100 μM): 58 (1) %

Compound: C=CCc1ccc(O)c(OC)c1 [Eugenol]
- % of control metabolism (SD, n = 3), 7-HFC glucuronidation ([1]; inhibitor 500 μM): 63 (1) %
- % of control metabolism, raloxifene G1 ([2]; 50 µM): 39 (0), 41 (3) % and 65 (1), 63 (3) % and 69 (4), 53 (2) %
- % of control metabolism, raloxifene G2 ([2]; 50 µM): 39 (0), 41 (3) % and 65 (1), 63 (3) % and 69 (4), 53 (2) %
- residual metabolism (% of control), 2ME2 MG2 ([4]; inhibitor 100 μM): 72 (1) %
- inhibition of raloxifene glucuronidation, in words [5]: ineffective
- inhibition of raloxifene glucuronidation, in words [6]: ineffective

Compound: CC(CCc1ccccc1)NCC(O)c1ccc(O)c(C(N)=O)c1 (stereo not drawn) [Labetalol, labetalol]
- % of control metabolism (SD, n = 3), 7-HFC glucuronidation ([1]; inhibitor 500 μM): 95 (2) %
- % of control metabolism (SD, n = 3), raloxifene glucuronide G1 [2, 11]: 104 (11) %
- % of control metabolism (SD, n = 3), raloxifene glucuronide G2 [2, 11]: 102 (4) %

Compound: CCCOC(=O)c1cc(O)c(O)c(O)c1 [Propyl gallate]
- % of control metabolism (SD, n = 3), 7-HFC glucuronidation ([1]; inhibitor 200 μM): 71 (1) %
- % of control metabolism (SD, n = 3), 7-HFC glucuronidation ([1]; inhibitor 500 μM): 63 (0), % and 59 (1) %
- % of control metabolism (SD, n = 3), raloxifene glucuronide G1 [2, 8]: 58 (4) %
- % of control metabolism (SD, n = 3), raloxifene glucuronide G1 [2, 9]: 45 (6) %
- % of control metabolism (SD, n = 3), raloxifene glucuronide G1 [2, 10]: 48 (2) %
- % of control metabolism (SD, n = 3), raloxifene glucuronide G1 [2, 11]: 21 (1) %
- % of control metabolism (SD, n = 3), raloxifene glucuronide G2 [2, 8]: 60 (4) %
- % of control metabolism (SD, n = 3), raloxifene glucuronide G2 [2, 9]: 48 (6) %
- % of control metabolism (SD, n = 3), raloxifene glucuronide G2 [2, 10]: 52 (3) %
- % of control metabolism (SD, n = 3), raloxifene glucuronide G2 [2, 11]: 33 (2) %
- % of control metabolism, raloxifene G1 [2, 16]: 58 (4) %
- % of control metabolism, raloxifene G2 [2, 16]: 60 (4) %
- % of control metabolism, raloxifene G1 [2, 17]: 45 (6) %
- % of control metabolism, raloxifene G2 [2, 17]: 48 (6) %
- % of control metabolism, raloxifene G1 [2, 18]: 48 (2) %
- % of control metabolism, raloxifene G2 [2, 18]: 52 (3) %
